Measurements as given in paper PMC8767159, “Multiparameter Optimization of Trypanocidal Cruzain Inhibitors With In Vivo Activity and Favorable Pharmacokinetics” (Frontiers in Pharmacology, 2022).

What was measured:
T. cruzi (Y strain) = assay: In vivo trypanocidal activity in mice infected with T. cruzi (Y strain); design: species or system Trypanosoma cruzi; settings: for % reduction of peak parasitemia: vs vehicle
Procedure: Thirty-day-old female Swiss mice weighing 20–25 g and procured from the Center for the Development of Experimental Models for Medicine and Biology (CEDEME/UNIFESP) served as the subjects for these experiments. Animals were housed (5–6 per cage) in polypropylene cages and kept under controlled temperature (22–23°C) and humidity on a 12-h light/dark cycle (12 h light, 12 h dark; lights on at 6:30 am). Rodent chow and water were available ad libitum throughout the experiments. The Committee of Ethics in Research of the Universidade Federal de São Paulo approved all the experiments (CEUA n° 5301080816).
Treatment started on day five after infection with T. cruzi. The following parameters were evaluated in these experiments: level of parasitemia after the treatment, suppression of peak parasitemia (day seven after the infection), and reduction of parasitemia on the peak day (day seven after infection). Parasitemia was expressed as the number of T. cruzi trypomastigotes per 5 µl of blood and was calculated using the Brener method ([Brener, 1962]). […] On the seventh day of treatment, when parasitemia reached its peak, one-way ANOVA indicated a treatment effect (F3,16 = 7.47; p = 0.002). […] This dose-response effect is likely associated with the modulation of physiological systems that increase the susceptibility of the animals to infection with T. cruzi at high doses of the compound. […] The results of the in vivo studies indicate a moderate ability of 28 to suppress peak parasitemia at 150 mg/kg.

[1] = Acute toxicity and open-field test in female Swiss mice; type: in vivo
Procedure: Thirty-day-old female Swiss mice weighing 20–25 g and procured from the Center for the Development of Experimental Models for Medicine and Biology (CEDEME/UNIFESP) served as the subjects for these experiments. […] Rodent chow and water were available ad libitum throughout the experiments.
The compound, solubilized in 10% DMSO aqueous solution, was administered orally in a single dose of 150 and 300 mg/kg of body weight in female Swiss mice. Parameters related to behavior, autonomic functions, neurological activity, and mortality were assessed as toxicity signs. Soon after the administration of the compound, mice were placed in a circular open-field arena (40 cm diameter) with 50-cm-high walls to assess motor deficits. […] After this period, toxicity signs were assessed once a day for two consecutive weeks. The reference drug BZ at 150 mg/kg and vehicle (10% DMSO) were administered as controls.

[2] = 150 mg/kg, gavage, five daily doses from day 5 after infection, day 7, female Swiss mice
[3] = single oral dose 150 and 300 mg/kg, 2 weeks of observation
[4] = 300 mg/kg, gavage, five daily doses, day 7, female Swiss mice

O=C(Cn1ccnc1[N+](=O)[O-])NCc1ccccc1 [BZ, benznidazole, reference compound]
% reduction of peak parasitemia (T. cruzi (Y strain); [2]): 100%

NC(=O)Cn1c(CCNC(=O)COc2ccccc2)nc2ccccc21 [Compound 28]
Locomotor deficits (open-field test) ([1]; oral 150 and 300 mg/kg): did not cause locomotor deficits
Mortality [1, 3]: no mortality
Toxicity signs (behavior, autonomic functions, neurological activity) [1, 3]: No toxicity signs
reduction in parasitemia levels at lower doses (T. cruzi (Y strain); 75 mg/kg and 37.5 mg/kg, Supplementary Figure S10): no reduction
% reduction of peak parasitemia (T. cruzi (Y strain); [2]): 36.9%
increase in the peak parasitemia compared with the vehicle (T. cruzi (Y strain); [4]): 13%
% reduction of peak parasitemia (T. cruzi (Y strain); [4]): -13%
